Data from US7422854B1, “Cholesterol reduction signature” (priority 2002, dated 2008).

Experiments:
male Sprague-Dawley rats = assay: Cholesterol Lowering Index: total blood cholesterol (clinical chemistry) in treated versus vehicle-treated rats; assay type: in vivo, rat; conditions: for Chol index (fold reduction) / Cholesterol Index (fold reduction): male rats; for Chol index (fold reduction): vs vehicle; for reduction in cholesterol: extremes of the twenty treatments of table 1, treated versus untreated rats; for Cholesterol Index (fold reduction): Table 4
Description: Compound dosing was based on the acute dose LD50s recorded in published reference or literature sources. […] The MTD (maximum tolerated dose) was then selected as the dose at which the animals […] 5-10% body weight during the 5-day range finding study. […] In addition, the clinical observations must show no or mild clinical signs during the whole of the range-finding study. At the next highest dose, signs and symptoms of adverse effects and exceeding those of the MTD should be seen to occur. Should these criteria not be met, the range-finding study is repeated using a modified dose range.
(§1) After determination of the MTD and FED for a compound, each compound was dissolved in a vehicle for administration on day 1 of the study (additional daily doses were stored as frozen aliquots from this initial formulation). Each compound was administered to three individual male Sprague-Dawley rats for each of the two doses (MTD and FED) for one of four different times (0.25 day, 1 day, 3 days, and 5 days), yielding a total of up to 24 animals per compound study. Vehicle choice was based on solubility of the compound, effect of food on adsorption, and the vehicles used in the literature reports examined during the FED selection investigations, described above. Generally, the route and vehicle in which the FED was defined are used. When there was a choice of routes and vehicles, oral routes were chosen over injection routes. Many compounds, especially oncolytics, are only administerable intravenously. In such cases, the compound was administered as an intravenous formulation into the tail vein. Orally administered compounds were given dissolved in either water, 1% carboxymethycellulose (CMC) or corn oil. Intravenously and intraperitoneally administered compounds were given in 0.9% saline. Subcutaneously administered compounds were given in corn oil. Animal body weights were determined at 1 day and, where appropriate, at 4 days, before necropsy, and clinical observations were made on a daily basis. Control animals were dosed with vehicle only. Three male animals were used for each dose and time combination used for the compound treatment.
(§2) Tissue harvest and handling: After the allocated treatment time, the tissues from the animals were harvested. […] All the tissues collected were divided to provide samples for histopathological analyses, and the remainder of each tissue was then snap-frozen. […] The following blood constituents were measured: Blood Urea Nitrogen (BUN), Creatinine (CRE), Glucose (GLU), Alanine Transaminase (ALT), Aspartate Aminotrans-ferase (AST), Alkaline Phosphatase (ALP), Total Bilirubin (TBI), Sodium (SOD), Potassium (POT), Chloride (CHL), Phosphorus (PHO), Total Protein (TPR), Albumin (ALB), Cholesterol (CHO), Creatine Phosphokinase (CPK), Lactate Dehydrogenase (LDH), Carbon Dioxide (CO2), Uric Acid (UA), and Lipase. […] The parameters were measured using a Baker 9000 blood cell analysis instrument according to the manufactures instructions. The following blood constituents were measured: Leukocyte count (WBC), Differential Leukocyte counts, Erythrocyte count (RBC), Hemoglobin concentration (HGB), Hematocrit (HCT), Mean Corpuscular Volume (MCV), Mean Corpuscular Hemoglobin (MCH), Mean Corpuscular Hemoglobin Concentration (MCC), Thrombocyte Count (PLC). Histopathology: Histopathological analyses of hematoxylin and eosin-stained tissue sections were performed and peer-reviewed by board-certified (Diplomate, American College of Veterinary Pathologists) veterinary pathologists. Preparation of Enriched mRNA: Punch Biopsies were Taken from the Frozen Tissues and were completely homogenized before being processed using the MagNA Pure robot. (Roche Diagnostics Corp., Indianapolis, Ind.) in combination with the MagNA Pure LC RNA Isolation kit II (Roche Diagnostics Corp).

livers of rats = assay: Signature Projection Score (SPS): match of liver gene expression to the Cholesterol Reduction Signature; assay type: in vivo; conditions: rat liver, maximum of training treatments = 100
Procedure: as §1
as §2, with “Corp). The amount of lysis buffer was adjusted to allow 1 ml per 50 mg for liver tissue, or 1 ml per 80 mg for all other tissues. After complete homogenization and before loading of the samples into the 32-well MagNA Pure plate, the samples were syringed 5-6 times using a 20-gauge 3-ml syringe to ensure a smooth solution for robotic processing. Tissue sample processing was performed in duplicate wells (loading 150 μl of homogenized sample and 150 μl of additional lysis buffere to each well) of the MagNA Pure LC, which is programmed to extract mRNA using oligo-dT selection technology into a final elution volume of 100 μl. Poly A(+) RNA sample concentration was performed using a standard ethanol precipitation protocol in the presence of glycogen (50 μg/ml).” for “Corp).”

rat = conditions: ovarectomized female rats; cited from earlier work

With `CC[C@H](C)C(=O)O[C@H]1C[C@@H](C)C=C2C=C[C@H](C)[C@H](CC[C@@H]3C[C@@H](O)CC(=O)O3)[C@H]21` (relative stereo) [LOVASTATIN, (1S-(1α(R*),3α,7β,8β(2S*,4S*)-8αβ)-2-methylbutanoic acid 1,2,3,7,8,8a-hexahydro-3,7-dimethyl-8-(2-(tetrahydro-4-hydroxy-6-oxo-2H-pyran-2-yl)ethyl)-1-naphthalenyl ester] the “Chol index (fold reduction)” value (male Sprague-Dawley rats; dose 450, time 5 days) was 2.39 fold reduction and the reduction in cholesterol (male Sprague-Dawley rats) was 2 fold.
In the case of `C[C@]12CC[C@@H]3c4ccc(OC(=O)c5ccccc5)cc4CC[C@H]3[C@@H]1CC[C@@H]2O` [BETA-ESTRADIOL 3-BENZOATE], the “Cholesterol Index (fold reduction)” value (male Sprague-Dawley rats; dose 2, time point 3 days) is reported as 2.0 fold reduction and the SPS (livers of rats; dose 2 (mg/ml), time point 3 days) is reported as 46.4.
With `C[C@]12CC[C@@H]3c4ccc(O)cc4CC[C@H]3[C@@H]1CC[C@@H]2O` [BETA-ESTRADIOL, (17β)-estra-1,3,5(10)-triene-3,17-diol] the “Cholesterol Index (fold reduction)” value (male Sprague-Dawley rats; dose 150, time point 3 days) was 3.1 fold reduction, the “Cholesterol Index (fold reduction)” value (male Sprague-Dawley rats; dose 150, time point 5 days) was 4.7 fold reduction and the “Chol index (fold reduction)” value (male Sprague-Dawley rats; dose 150, time 3 days) was 3.21 fold reduction. The “Chol index (fold reduction)” value (male Sprague-Dawley rats; dose 150, time 5 days) was 4.94 fold reduction, the SPS (livers of rats; dose 150 (mg/ml), time point 1 day) was 53 and the SPS (livers of rats; dose 150 (mg/ml), time point 3 days) was 63.4. It also gave an SPS (livers of rats; dose 150 (mg/ml), time point 5 days) of 63.7.
In the case of `CCOC(=O)C(C)(C)Oc1ccc(Cl)cc1` [CLOFIBRATE, 2-(4-chlorophenoxy)-2-methylpropanoic acid ethyl ester], the “Chol index (fold reduction)” value (male Sprague-Dawley rats; dose 500, time 3 days) is reported as 2.43 fold reduction.
With `C[C@@H]1C[C@H]2[C@@H]3CCC4=CC(=O)C=C[C@]4(C)[C@@]3(F)[C@@H](O)C[C@]2(C)[C@@]1(O)C(=O)CO` [DEXAMETHASONE] the “Cholesterol Index (fold reduction)” value (male Sprague-Dawley rats; dose 1, time point 3 days) was 0.9 fold reduction and the SPS (livers of rats; dose 1 (mg/ml), time point 3 days) was 49.5.
For `CC/C(=C(/CC)c1ccc(O)cc1)c1ccc(O)cc1` [DIETHYLSTILBESTROL, 3,4-bis-(4-hydroxyphenyl)-3-hexene], the “Cholesterol Index (fold reduction)” value (male Sprague-Dawley rats; dose 2.8, time point 3 days) was 3.0 fold reduction, the “Cholesterol Index (fold reduction)” value (male Sprague-Dawley rats; dose 2.8, time point 5 days) was 3.4 fold reduction and the “Chol index (fold reduction)” value (male Sprague-Dawley rats; dose 2.8, time 3 days) was 3.10 fold reduction. For the same molecule, the “Chol index (fold reduction)” value (male Sprague-Dawley rats; dose 2.8, time 5 days) was 3.56 fold reduction, the SPS (livers of rats; dose 2.8 (mg/ml), time point 1 day) was 57.3 and the SPS (livers of rats; dose 2.8 (mg/ml), time point 3 days) was 71.2. It also gave an SPS (livers of rats; dose 2.8 (mg/ml), time point 5 days) of 80.9, an SPS (livers of rats; dose 300 (mg/ml), time point 1 day) of 59 and an SPS (livers of rats; dose 300 (mg/ml), time point 3 days) of 83.3. The SPS (livers of rats; dose 300 (mg/ml), time point 5 days) was 91.1.
For `C[C@]12CC[C@@H]3c4ccc(O)cc4CC[C@H]3[C@@H]1C[C@@H](O)[C@@H]2O` [ESTRIOL, (16α, 17β)-estra-1,3,5(10)-triene-3,16,17-triol], the “Cholesterol Index (fold reduction)” value (male Sprague-Dawley rats; dose 313, time point 3 days) was 3.2 fold reduction, the “Cholesterol Index (fold reduction)” value (male Sprague-Dawley rats; dose 313, time point 5 days) was 20.9 fold reduction and the “Chol index (fold reduction)” value (male Sprague-Dawley rats; dose 313, time 3 days) was 3.30 fold reduction. For the same molecule, the “Chol index (fold reduction)” value (male Sprague-Dawley rats; dose 313, time 5 days) was 20.28 fold reduction, the reduction in cholesterol (male Sprague-Dawley rats) was 20 fold and the SPS (livers of rats; dose 313 (mg/ml), time point 1 day) was 51.5. It also gave an SPS (livers of rats; dose 313 (mg/ml), time point 3 days) of 65.1 and an SPS (livers of rats; dose 313 (mg/ml), time point 5 days) of 83.4.
In the case of `OC(Cn1cncn1)(Cn1cncn1)c1ccc(F)cc1F` [FLUCONAZOLE, α-(2,4-difluorophenyl)-α-(1H-1,2,4-triazol-1-ylmethyl)-1H-1,2,4-triazole-1-ethanol], the “Cholesterol Index (fold reduction)” value (male Sprague-Dawley rats; dose 394, time point 5 days) is reported as 3.7 fold reduction, the “Chol index (fold reduction)” value (male Sprague-Dawley rats; dose 394, time 5 days) is reported as 3.94 fold reduction and the SPS (livers of rats; dose 394 (mg/ml), time point 5 days) is reported as 59.7.
With `C#C[C@]1(OC(C)=O)CC[C@H]2[C@@H]3CCC4=CC(=O)CC[C@@H]4[C@H]3CC[C@@]21C` [NORETHINDRONE ACETATE] the “Cholesterol Index (fold reduction)” value (male Sprague-Dawley rats; dose 125, time point 3 days) was 2.0 fold reduction, the “Cholesterol Index (fold reduction)” value (male Sprague-Dawley rats; dose 125, time point 5 days) was 4.0 fold reduction and the “Chol index (fold reduction)” value (male Sprague-Dawley rats; dose 125, time 5 days) was 4.07 fold reduction. For the same molecule, the SPS (livers of rats; dose 125 (mg/ml), time point 1 day) was 58.8, the SPS (livers of rats; dose 125 (mg/ml), time point 3 days) was 81.6 and the SPS (livers of rats; dose 125 (mg/ml), time point 5 days) was 80.7.
For `C#C[C@]1(O)CC[C@H]2[C@@H]3CCC4=CC(=O)CC[C@@H]4[C@H]3CC[C@@]21C` [NORETHINDRONE, (17α)-17-hydroxy-19-norpregn-4-en-20-yn-3-one], the “Cholesterol Index (fold reduction)” value (male Sprague-Dawley rats; dose 375, time point 3 days) was 3.5 fold reduction, the “Chol index (fold reduction)” value (male Sprague-Dawley rats; dose 375, time 3 days) was 3.56 fold reduction and the “Chol index (fold reduction)” value (male Sprague-Dawley rats; dose 375, time 5 days) was 3.06 fold reduction.
In the case of `O=C(c1ccc(OCCN2CCCCC2)cc1)c1c(-c2ccc(O)cc2)sc2cc(O)ccc12` [RALOXIFENE, [6-hydroxy-2-(4-hydroxyphenyl)-3-(4-[2-piperidin-1-yl)ethoxy]benzoyl)-benzo[b]thiene], the “Chol index (fold reduction)” value (male Sprague-Dawley rats; dose 6.5, time 5 days) is given as 2.61 fold reduction and the effect on cholesterol (rat) is given as “lower cholesterol”.
